Measured values: ChEMBL document CHEMBL1201862, “PubChem BioAssay data set” (2004)
Calls of active or inactive are those of the source. Rule as the data show it, for most assays here: actives have a measured EC50 and inactives only a lower limit.

Columns and labels:
[1] = biological target: T1, Replicative DNA helicase DnaB (Mycobacterium tuberculosis, UniProt P9WMR3); test: DnaB intein splicing inhibitors, dose response, biochemical, cell-free fluorescence (AID 449749); assay type: functional
T1 sequence (P9WMR3 whole entry): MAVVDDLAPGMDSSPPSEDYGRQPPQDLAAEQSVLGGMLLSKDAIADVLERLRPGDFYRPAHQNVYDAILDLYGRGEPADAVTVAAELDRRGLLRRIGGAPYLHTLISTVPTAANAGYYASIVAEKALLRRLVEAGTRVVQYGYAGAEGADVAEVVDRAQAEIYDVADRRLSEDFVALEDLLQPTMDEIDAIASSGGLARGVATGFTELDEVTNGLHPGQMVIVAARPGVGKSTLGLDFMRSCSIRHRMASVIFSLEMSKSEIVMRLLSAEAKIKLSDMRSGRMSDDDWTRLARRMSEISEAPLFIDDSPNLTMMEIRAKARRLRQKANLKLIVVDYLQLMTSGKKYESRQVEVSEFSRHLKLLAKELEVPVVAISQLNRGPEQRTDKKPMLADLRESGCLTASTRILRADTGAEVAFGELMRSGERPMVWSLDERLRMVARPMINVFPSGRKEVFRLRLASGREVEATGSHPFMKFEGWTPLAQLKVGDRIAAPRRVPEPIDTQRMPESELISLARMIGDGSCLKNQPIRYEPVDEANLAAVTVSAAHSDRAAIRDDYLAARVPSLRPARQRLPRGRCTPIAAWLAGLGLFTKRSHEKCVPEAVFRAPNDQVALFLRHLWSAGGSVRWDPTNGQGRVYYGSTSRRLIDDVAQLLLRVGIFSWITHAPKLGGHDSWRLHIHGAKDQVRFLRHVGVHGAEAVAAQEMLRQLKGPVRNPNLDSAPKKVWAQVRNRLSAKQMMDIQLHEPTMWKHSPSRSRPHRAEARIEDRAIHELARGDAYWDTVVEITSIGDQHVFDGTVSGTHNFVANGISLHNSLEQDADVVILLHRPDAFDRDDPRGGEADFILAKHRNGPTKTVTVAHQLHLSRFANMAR

[2] = biological target: T2, Protein RecA (Mycobacterium tuberculosis, UniProt P9WHJ3); test: Fluorescence Cell-Free Homogeneous Dose Retest to Identify Inhibitors of RecA-Intein Splicing Activity. [Related pubchem assays (depositor defined):AID2097, AID2223, AID489010, AID492950]; assay type: functional
T2 sequence (P9WHJ3 whole entry): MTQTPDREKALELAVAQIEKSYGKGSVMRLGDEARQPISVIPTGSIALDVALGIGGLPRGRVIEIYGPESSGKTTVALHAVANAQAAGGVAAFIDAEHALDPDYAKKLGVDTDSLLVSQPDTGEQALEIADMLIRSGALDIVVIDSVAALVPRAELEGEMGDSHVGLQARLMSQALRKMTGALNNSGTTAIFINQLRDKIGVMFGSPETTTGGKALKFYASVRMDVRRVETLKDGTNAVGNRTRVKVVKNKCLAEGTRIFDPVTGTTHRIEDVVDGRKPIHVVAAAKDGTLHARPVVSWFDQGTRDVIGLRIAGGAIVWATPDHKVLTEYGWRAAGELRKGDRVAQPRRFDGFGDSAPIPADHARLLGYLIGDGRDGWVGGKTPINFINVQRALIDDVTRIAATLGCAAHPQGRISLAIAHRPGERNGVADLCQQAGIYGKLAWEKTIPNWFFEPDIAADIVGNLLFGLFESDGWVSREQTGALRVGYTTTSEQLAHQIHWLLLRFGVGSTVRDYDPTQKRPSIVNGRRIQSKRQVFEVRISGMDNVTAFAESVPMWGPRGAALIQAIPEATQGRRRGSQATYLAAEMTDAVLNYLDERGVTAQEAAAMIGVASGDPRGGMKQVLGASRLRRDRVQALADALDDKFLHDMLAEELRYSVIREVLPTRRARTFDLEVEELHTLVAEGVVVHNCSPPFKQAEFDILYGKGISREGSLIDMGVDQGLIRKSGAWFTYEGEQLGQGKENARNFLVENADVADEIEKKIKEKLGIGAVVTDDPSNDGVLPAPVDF

[3] = biological target: T3, Heat shock factor protein 1 (Mus musculus, UniProt P38532); test: inhibition of MG132-induced HSE-luciferase signal, confirmation, cell-based, NIH3T3, luminescence, dose retest (AID 2382); assay type: functional;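 also: NIH3T3 fibroblasts with HSF1-driven luciferase reporter stressed by proteasome inhibitor MG132; luminescence from HSF1-driven luciferase expression after 8 hours of MG132 stress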
T3 sequence (P38532 whole entry): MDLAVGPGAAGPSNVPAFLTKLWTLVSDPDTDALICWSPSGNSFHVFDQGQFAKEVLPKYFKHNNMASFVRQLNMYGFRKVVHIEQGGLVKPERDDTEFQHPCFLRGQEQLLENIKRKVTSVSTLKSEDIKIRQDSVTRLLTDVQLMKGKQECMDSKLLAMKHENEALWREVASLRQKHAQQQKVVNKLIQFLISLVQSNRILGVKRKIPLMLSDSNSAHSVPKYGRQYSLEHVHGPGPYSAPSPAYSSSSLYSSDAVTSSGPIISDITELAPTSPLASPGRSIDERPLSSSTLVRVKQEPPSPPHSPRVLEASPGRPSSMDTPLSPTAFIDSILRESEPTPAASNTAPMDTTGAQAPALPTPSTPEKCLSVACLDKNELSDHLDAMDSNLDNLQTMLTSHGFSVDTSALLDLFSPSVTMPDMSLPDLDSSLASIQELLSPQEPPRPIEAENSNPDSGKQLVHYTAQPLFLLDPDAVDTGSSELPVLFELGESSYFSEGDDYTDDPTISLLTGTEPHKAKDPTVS

[4] = biological target: Luciferin 4-monooxygenase (Photinus pyralis, UniProt P08659); test: firefly luciferase enzyme inhibitors, dose response, biochemical, luminescence (AID 1891)
[5] = Luminescence Cell-Based Dose Confirmation HTS to Identify Inhibitors of Platelet Dense Granule Release. [Related pubchem assays: 1663 (Primary HTS), 1678 (Summary of Project)]; assay type: functional
[6] = test system: H4; test: Luminescence Cell-Based Dose Response HTS to Identify Activators of 5'UTR Stem-Loop Driven Prion Protein mRNA Translation in H4 Neuroglioblastoma Cells. [Related pubchem assays: 1829 (Project Summary), 1814 (Primary HTS)]; assay type: functional; conditions: Homo sapiens
[7] = Luminescence Cell-Based Dose Response HTS to Identify Activators of Luciferase Translation or Activity in H4 […] Cells. [Related pubchem assays: 1829 (Project Summary), 1814 (Primary HTS)]; assay type: functional
[8] = Luminescence Cell-Based Dose Confirmation HTS to Identify Activators of 5'UTR Stem-Loop Driven Alpha-Synuclein mRNA Translation in H4 Neuroglioblastoma Cells. [Related pubchem assays: 1829 (Project Summary), 1814 (Primary HTS)]; assay type: functional
[9] = Shn3 3'UTR reporter inhibitors, dose response, cell-based, Clone20 osteoblasts, firefly luciferase, cherry-picked (AID 624132); assay type: functional;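 also: firefly luciferase luminescence from reporter carrying the Shn3 3'UTR in osteoblasts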
[10] = control 3'UTR Renilla luciferase suppression, dose response, counter-screen for Shn3 inhibitor project, cell-based, Clone20-Shn3RL, cherry-picked (AID 624133); assay type: functional

Chain of Luciferin 4-monooxygenase (P08659 whole entry): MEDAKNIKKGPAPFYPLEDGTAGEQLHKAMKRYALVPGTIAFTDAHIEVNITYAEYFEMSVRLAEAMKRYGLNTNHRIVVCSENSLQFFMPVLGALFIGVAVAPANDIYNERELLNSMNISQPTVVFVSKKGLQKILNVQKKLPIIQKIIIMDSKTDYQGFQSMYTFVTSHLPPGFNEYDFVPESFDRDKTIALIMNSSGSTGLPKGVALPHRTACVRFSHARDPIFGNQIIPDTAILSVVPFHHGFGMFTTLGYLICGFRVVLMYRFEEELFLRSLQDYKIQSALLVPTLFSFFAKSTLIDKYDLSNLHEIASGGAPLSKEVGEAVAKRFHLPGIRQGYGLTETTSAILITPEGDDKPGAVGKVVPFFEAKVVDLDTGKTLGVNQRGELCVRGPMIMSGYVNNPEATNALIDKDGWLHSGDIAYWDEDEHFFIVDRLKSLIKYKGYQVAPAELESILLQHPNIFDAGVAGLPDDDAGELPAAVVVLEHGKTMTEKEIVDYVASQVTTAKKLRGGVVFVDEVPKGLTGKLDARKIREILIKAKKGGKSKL

With O=C1CC(NC(=O)C(F)(F)F)=NN1c1ccccc1 the AC50 [1] was 6.86 µM (active) and the EC50 [2] was 5.51 µM (active).
In the case of COc1cc(C=C(c2nc3ccccc3s2)c2nc3ccccc3s2)ccc1O, the AC50 [1] is reported as > 380 µM (inactive) and the EC50 [2] is reported as 5.08 µM (active).
In the case of CCOC(=O)c1cnn(-c2ccccc2)c1-n1cccc1, the EC50 [3] is reported as > 195 µM (not active).
With O=S(=O)(c1ccc(F)cc1)N(Cc1ccco1)Cc1cc2ccccc2nc1O the EC50 [4] was > 112 µM (not active) and the EC50 [5] was > 112 µM (not active).
For COc1ccc(CCN2CC(C(=O)NCCc3ccc(C(F)(F)F)cc3)CCC2=O)cc1 (stereo not drawn), the EC50 [4] was > 112 µM (not active) and the EC50 [5] was > 112 µM (not active).
In the case of Cc1ccc(OC(=O)c2ccc([N+](=O)[O-])cc2Cl)cn1, the AC50 [1] is reported as 11.2 µM (active) and the EC50 [2] is reported as 4.92 µM (active).
In the case of S=C(Nc1ccc(Nc2ccccc2)cc1)NN1CCOCC1, the EC50 [6] is reported as > 120 µM (not active), the EC50 [7] is reported as 56.1 µM (active) and the EC50 [3] is reported as > 195 µM (not active). The EC50 [8] was > 120 µM (not active).
With C[C@H]1COC(=O)[C@H](NC(=O)OCC2c3ccccc3-c3ccccc32)C/C=C\C[C@H](CC(=O)N(CCO)Cc2ccccc2)C(=O)N1 the AC50 [9] was 6.08 µM (active) and the AC50 [10] was 5.76 µM (active).
In the case of CC1C/C(=N/Nc2nc3ccccc3[nH]2)CC(C)(C)C1 (stereo not drawn), the EC50 [3] is reported as > 195 µM (not active).
In the case of Cc1ccc(SCc2n[nH]c3c2C(c2ccco2)C(C#N)=C(N)O3)cc1 (stereo not drawn), the AC50 [1] is reported as < 0.018 µM (active) and the EC50 [2] is reported as 6.19 µM (active).
In the case of O=Cc1c(-c2ccc(Cl)cc2)oc2ccc(O)cc12, the EC50 [3] is reported as 18 µM (active).
For CCc1nn2c(=O)c(S(=O)(=O)Nc3cccc(F)c3)c(C)nc2s1, the EC50 [3] was > 195 µM (not active).
With COc1cccc(/C=N/NC(=O)c2cnccn2)c1 the EC50 [3] was > 195 µM (not active).
